Converted amounts (≈) assume the structure as drawn. Where two headings read alike, the source gives them in different places.
Experiments:
[1] = Solubility in fasted-state simulated colonic fluid (FaSSCoF) at pH 6.5; type: physicochemical; conditions: fasted-state simulated colonic fluid (FaSSCoF), 25 °C, pH 6.5, fassgf or other biorelevant, thermodynamic from solid, pH 6.5, 25° C.
Method: The solubilities of compounds of the invention in FaSSCoF at pH 6.5 are determined using a modification of a previously-reported procedure (Vertzoni, M., et al. Pharm. Res. 2010, 27, 2187-2196). In place of the bile salt extract employed in the original procedure (which extract is no longer available), the modified procedure uses a mixture of sodium taurocholate (0.15 g), glycocholic acid (0.15 g), ursodeoxycholic acid (0.05 g), cholic acid (0.05 g), and glycodeoxycholic acid (0.05 g). These five bile acids are ground together with a mortar and pestle to produce a fine white powder that is incorporated into the FaSSCoF, as outlined below.
FaSSCoF medium: Tris(hydroxymethyl)aminomethane (Tris; 0.275 g) and maleic acid (0.44 g) are dissolved in water (35 mL) to give a solution whose pH is adjusted to 6.5 by treatment with 0.5M NaOH (ca. 12 mL). The solution is then made up to 50 mL with water. A portion of this Tris/maleate buffer solution (ca. 25 mL) is added to a 0.5 L round-bottomed flask, before being treated with 0.00565 g of the bile acid mixture described above. Solutions of phosphatidylcholine (0.0111 g) in DCM (0.15 mL) and palmitic acid (0.0013 g) in DCM (0.15 mL) are added, then the organic solvent is evaporated off under reduced pressure at 40° C. until a clear solution, with no perceptible DCM odour, is achieved. The volume of the evaporated solution is adjusted to 50 mL by addition of the remainder of Tris/maleate buffer, then BSA (0.115 g) is added, before being dissolved by gentle agitation.
Solubility Determination: Test compounds are suspended in the pH 6.5 FaSSCoF medium to give a maximum final concentration of 2-10 mg/mL. The suspensions are equilibrated at 25° C. for 24 h, before being filtered through a glass fibre C filter. The filtrates are then diluted as appropriate for injection and quantification by HPLC with reference to a standard. Different volumes of the standard, diluted and undiluted sample solutions are injected and the solubilities are calculated using the peak areas determined by integration of the peak found at the same retention time as the principal peak in the standard injection.

[2] = Solubility and dissolution rate in phosphate-buffered saline (further studies); type: physicochemical; conditions: pH 6.5 with 0.5% by weight of simulated intestinal fluid or pH 7.2
Jurkat cells = assay: Cell cytotoxicity assay, Jurkat cell viability (assay (r)); type: cell-based, human; conditions: 24 hours
Method: 1×10^5 Jurkat cells (immortalised human T lymphocytes) are added to the appropriate number of wells of a 96 well plate in 100 μL of media (RPMI supplemented with 10% foetal bovine serum). 1 μL of DMSO control (final concentration 1.0% v/v) or test compound (final concentration 20, 5 or 1 μg/mL) is added to the wells and incubated at 37° C., 5% CO2. After 24 hours, the plate is centrifuged at 1200 rpm for 3 minutes and the supernatant discarded. Cells are then resuspended in 150 μL (final concentration 7.5 μg/mL) of propidium iodide (PI) in PBS and incubated at 37° C., 5% CO2 for 15 minutes. After 15 minutes, cells are analysed by flow cytometry (BD accuri) using the FL3 window. The % viability is calculated as the % of cells that are P negative in the test wells normalised to the DMSO control.

[3] = system: IFN gamma release in PBMCs; assay: IFN gamma release in CD3/CD28 stimulated PBMC cells (assay (c)); type: cell-based; conditions: Homo sapiens, read-out: IC50 Values in PBMCs IFNγ
Method: PBMCs from healthy subjects are separated from whole blood using a density gradient (Lymphoprep, Axis-Shield Healthcare). Cells are added to a 96 well plate pre-coated with a mixture of CD3/CD28 monoclonal antibodies (0.3 μg/mL eBioscience and 3 μg/mL BD Pharmingen respectively). Compound at the desired concentration is then added to the wells and the plate left for 3 days under normal tissue culture conditions. Supernatants are harvested and IL-2 and IFN gamma release determined by Sandwich ELISA (Duo-set, R&D System). The IC50 is determined from the dose response curve.

c-Src = c-Src (Homo sapiens (Human), UniProt P12931); assay: c-Src enzyme inhibition (FRET, Z-LYTE); type: biochemical
Method: (§1) The enzyme inhibitory activities of compounds disclosed herein are determined by FRET using synthetic peptides labelled with both donor and acceptor fluorophores (Z-LYTE, Invitrogen Ltd., Paisley, UK).
(§2) The inhibitory activities of compounds of the invention against c-Src and Syk enzymes (Invitrogen), are evaluated in a similar fashion to that described hereinabove. The relevant enzyme (3000 ng/mL or 2000 ng/mL respectively, 2.5 μL) is incubated with the test compound (either 1 μg/mL, 0.1 μg/mL, 0.01 μg/mL, or 0.001 μg/mL, 2.5 μL each) for 2 hr at RT. The FRET peptides (8 μM. 2.5 μL), and appropriate ATP solutions (2.5 μL, 800 μM for c-Src, and 60 μM ATP for Syk) are then added to the enzymes/compound mixtures and the mixture incubated for 1 hr. Development reagent (protease, 5 μL) is added for 1 hr prior to detection in a fluorescence microplate reader (Varioskan® Flash, ThermoFisher Scientific).
(§3) In all cases, the site-specific protease cleaves non-phosphorylated peptide only and eliminates the FRET signal. Phosphorylation levels of each reaction are calculated using the ratio of coumarin emission (donor) over fluorescein emission (acceptor), for which high ratios indicate high phosphorylation and low ratios indicate low phosphorylation levels. […]

IL-8 release in PBMCs = assay: LPS-induced IL-8 release in PBMC cells (assay (b)); type: cell-based; conditions: Homo sapiens, LPS-stimulated PBMCs
Text: Peripheral blood mononuclear cells (PBMCs) from healthy subjects are separated from whole blood using a density gradient (Lymphoprep, Axis-Shield Healthcare). […] The supernatant is harvested for determination of IL-8 and TNFα concentrations by sandwich ELISA (Duo-set, R&D systems) and read on the fluorescence microplate reader (Varioskan® Flash, ThermoFisher Scientific).

Syk = Syk (Homo sapiens (Human), UniProt P43405); assay: Syk enzyme inhibition (FRET, Z-LYTE); type: biochemical
Method: as §1, §2, §3

p38 MAPKα = p38 MAPKα (Homo sapiens (Human), UniProt Q16539); assay: p38 MAPKα enzyme inhibition (FRET, Z-LYTE; Method 2); type: biochemical
Method: as §1
The inhibitory activities of test compounds against the p38 MAPKα isoform (MAPK14: Invitrogen) are evaluated indirectly by determining the level of activation/phosphorylation of the down-stream molecule, MAPKAP-K2. The p38 MAPKα protein (80 ng/mL, 2.5 μL) is mixed with the test compound (2.5 μL of either 4 μg/mL, 0.4 μg/mL, 0.04 μg/mL or 0.004 μg/mL) for 2 hr at RT. […] The mixture is incubated for 1 hr at RT. Development reagent (protease, 5 μL) is added for 1 hr prior to detection in a fluorescence microplate reader (Varioskan® Flash, ThermoFisher Scientific).
This method follows the same steps as Method 1 above, but utilises a higher concentration of the p38 MAPKα protein (2.5 μL of 200 ng/mL protein instead of 2.5 μL of 80 ng/mL protein) for mixing with the test compound (tested at either 1 μg/mL, 0.1 μg/mL, 0.01 μg/mL or 0.001 μg/mL).
as §3

[4] = Run 1, read-out: pH 6.5 FaSSCoF Solubility Run 1
[5] = Run 2, read-out: pH 6.5 FaSSCoF Solubility Run 2

Chain of c-Src (P12931 whole entry, looked up): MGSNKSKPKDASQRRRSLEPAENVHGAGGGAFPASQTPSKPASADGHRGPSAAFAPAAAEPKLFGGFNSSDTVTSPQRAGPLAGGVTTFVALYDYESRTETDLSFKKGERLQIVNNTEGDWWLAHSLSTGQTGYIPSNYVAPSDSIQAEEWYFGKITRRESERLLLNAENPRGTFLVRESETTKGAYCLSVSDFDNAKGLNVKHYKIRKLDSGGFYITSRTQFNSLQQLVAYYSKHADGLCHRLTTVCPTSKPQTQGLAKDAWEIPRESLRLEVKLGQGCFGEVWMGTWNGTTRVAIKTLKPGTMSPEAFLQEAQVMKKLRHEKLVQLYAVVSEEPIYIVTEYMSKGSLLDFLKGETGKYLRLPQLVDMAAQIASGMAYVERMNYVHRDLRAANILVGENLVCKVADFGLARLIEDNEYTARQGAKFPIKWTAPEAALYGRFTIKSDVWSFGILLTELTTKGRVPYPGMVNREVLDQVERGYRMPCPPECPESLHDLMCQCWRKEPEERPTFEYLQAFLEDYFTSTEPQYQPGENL
Chain of p38 MAPKα (Q16539 whole entry): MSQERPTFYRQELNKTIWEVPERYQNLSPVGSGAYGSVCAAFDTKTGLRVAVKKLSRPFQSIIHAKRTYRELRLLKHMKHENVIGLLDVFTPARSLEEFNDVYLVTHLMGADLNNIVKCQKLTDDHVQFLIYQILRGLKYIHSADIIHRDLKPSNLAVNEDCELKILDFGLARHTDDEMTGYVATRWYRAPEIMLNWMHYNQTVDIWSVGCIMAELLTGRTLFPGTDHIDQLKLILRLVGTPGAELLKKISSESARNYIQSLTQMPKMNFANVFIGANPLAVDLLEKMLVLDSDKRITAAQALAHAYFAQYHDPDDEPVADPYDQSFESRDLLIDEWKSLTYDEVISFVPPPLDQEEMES

Row | SMILES | solubility thermodynamic at 24 h [1, 4] [µg/mL] | solubility thermodynamic at 24 h [1, 5] [µg/mL] | Dissolution rate relative to Reference Compounds A (hydrochloride salt) and B [2] | Solubility relative to Reference Compounds A (hydrochloride salt) and B [2] | % Viability at 1 μg/mL (Jurkat cells) [%] | % Viability at 5 μg/mL (Jurkat cells) [%] | % Viability at 20 μg/mL (Jurkat cells) [%] | IC50 [3] [nM] | IC50 (c-Src) [nM] | IC50 (IL-8 release in PBMCs) [nM] | IC50 (Syk) [nM] | IC50 (p38 MAPKα) [nM]
1 | COc1cc(Nc2cc(Oc3ccc(NC(=O)Nc4cc(C(C)(C)C)cc(NS(C)(=O)=O)c4OC)c4ccccc34)ccn2)cc(OCCOCCOCC(=O)[O-])c1.[Na+] [Example 31, 2-(2-(2-(3-((4-((4-(3-(5-(tert-Butyl)-2-methoxy-3-(methylsulfonamido)phenyl)ureido)-naphthalen-1-yl)oxy)pyridin-2-yl)amino)-5-methoxyphenoxy)ethoxy)ethoxy)acetic acid, sodium salt] | 1900 | 2100 | faster dissolution rate | more soluble than |  |  |  |  |  |  |  | 
2 | COCC(=O)Nc1cc(Oc2ccc(NC(=O)Nc3cc(C(C)(C)C)nn3-c3ccc(C)cc3)c3ccccc23)ccn1 [Reference compound, N-(4-(4-(3-(3-tert-butyl-1-p-tolyl-1H-pyrazol-5-yl)ureido)naphthalen-1-yloxy)pyridin-2-yl)-2-methoxyacetamide, reference compound] |  |  |  |  | 29 | 26 | 24 |  |  |  |  | 
3 | COc1cc(Nc2nccc(Oc3ccc(NC(=O)Nc4cc(C(C)(C)C)cc(NS(C)(=O)=O)c4OC)c4ccccc34)n2)cc(OCCOCCOCC(=O)O)c1 [Example 2, 2-(2-(2-(3-((4-((4-(3-(5-(tert-Butyl)-2-methoxy-3-(methylsulfonamido)phenyl)ureido)-naphthalen-1-yl)oxy)pyrimidin-2-yl)amino)-5-methoxyphenoxy)ethoxy)ethoxy)acetic acid] | 90 (≈ 110 µM) | 60 (≈ 73.3 µM) |  |  | 99 | 99 | 97 | 39.4 | 14 | 24.6 | 8 | 23

Source: patent publication US10072034B2, “Kinase inhibitors” (Respivert Limited, priority 2016, dated 2018)
